Results as given in ChEMBL document CHEMBL1201862, “PubChem BioAssay data set” (2004).
Active and inactive are the calls of the source.

How the values were obtained:
[1] = target: ATP-dependent translocase ABCB1 (Homo sapiens, UniProt P08183); experiment: inhibition of P-gp mediated JC-1 efflux – Jurkat-DNR cells, flow cytometry, dose response (AID 1689); assay type: functional
[2] = target: Broad substrate specificity ATP-binding cassette transporter ABCG2 (Homo sapiens, UniProt Q9UNQ0); experiment: blockers of JC-1 export by ABCG2 – Ig-MXP3 cells, flow cytometry, dose response (AID 1690); assay type: functional
Beta-lactamase [3] = target: Beta-lactamase (Salmonella choleraesuis (strain SC-B67), UniProt Q5J463); experiment: Epi-absorbance-based counterscreen for selective VIM-2 inhibitors: dose response biochemical high throughput screening assay to identify inhibitors of TEM-1 serine-beta-lactamase.
Beta-lactamase [4] = target: T1, Beta-lactamase (Pseudomonas aeruginosa, UniProt Q79MP6); experiment: inhibition of IMP-1 beta-lactamase activity – biochemical, epi-absorbance, selectivity assay for VIM-2 inhibitor project, dose response (AID 1920)
Beta-lactamase [5] = target: T1, Beta-lactamase; experiment: […] counterscreen for selective VIM-2 inhibitors: dose response biochemical high throughput screening assay to identify inhibitors of IMP-1 metallo-beta-lactamase.
[6] = target: Adenosylmethionine-8-amino-7-oxononanoate aminotransferase (Mycobacterium tuberculosis, UniProt P9WQ81); experiment: Mycobacterium tuberculosis BioA enzyme inhibitor Measured in Biochemical System Using Plate Reader - 2163-02_Inhibitor_Dose_CherryPick_Activity.; assay type: functional, Mycobacterium tuberculosis UT205
[7] = target: T2, High affinity choline transporter 1 (Homo sapiens, UniProt Q9GZV3); experiment: human choline transporter blockers, potency – cell-based, 5-point CRC, membrane potential dye, dose response (AID 504840); assay type: functional
T2 sequence (Q9GZV3 whole entry): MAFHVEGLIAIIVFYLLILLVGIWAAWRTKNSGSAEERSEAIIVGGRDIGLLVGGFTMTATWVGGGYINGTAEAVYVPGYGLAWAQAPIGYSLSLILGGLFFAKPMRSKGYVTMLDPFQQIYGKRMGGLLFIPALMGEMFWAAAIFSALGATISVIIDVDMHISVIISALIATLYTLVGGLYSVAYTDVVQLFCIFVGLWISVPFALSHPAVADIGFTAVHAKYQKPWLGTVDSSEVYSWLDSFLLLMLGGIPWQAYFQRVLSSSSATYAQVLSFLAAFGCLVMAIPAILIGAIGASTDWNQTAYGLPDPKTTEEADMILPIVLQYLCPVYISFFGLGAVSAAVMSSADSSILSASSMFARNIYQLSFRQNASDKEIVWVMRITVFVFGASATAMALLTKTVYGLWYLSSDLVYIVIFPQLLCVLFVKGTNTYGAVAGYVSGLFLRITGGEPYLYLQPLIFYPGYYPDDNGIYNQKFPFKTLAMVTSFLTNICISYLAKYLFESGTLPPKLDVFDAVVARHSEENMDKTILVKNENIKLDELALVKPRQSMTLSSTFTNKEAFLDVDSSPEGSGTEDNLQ

[8] = target: T2, High affinity choline transporter 1; experiment: human choline transporter blockers, potency – cell-based, 10-point CRC, membrane potential dye, dose response (AID 588401); assay type: functional;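 also: membrane potential dye fluorescence of choline-evoked depolarization via CHT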
[9] = target: T2, High affinity choline transporter 1; experiment: human choline transporter radiolabel uptake blockers – cell-based, 3H-choline uptake, CHT LV-AA trafficking mutant, CRC, dose response (AID 602208); assay type: functional

T1 sequence (Q79MP6 whole entry): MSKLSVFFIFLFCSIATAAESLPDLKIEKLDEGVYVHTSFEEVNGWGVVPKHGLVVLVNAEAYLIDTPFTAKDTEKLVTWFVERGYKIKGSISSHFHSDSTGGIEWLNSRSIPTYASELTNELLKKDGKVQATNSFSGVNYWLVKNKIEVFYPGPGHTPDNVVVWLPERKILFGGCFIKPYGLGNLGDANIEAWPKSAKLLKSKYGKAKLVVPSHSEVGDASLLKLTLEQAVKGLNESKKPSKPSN
Chain of ATP-dependent translocase ABCB1 (P08183 whole entry): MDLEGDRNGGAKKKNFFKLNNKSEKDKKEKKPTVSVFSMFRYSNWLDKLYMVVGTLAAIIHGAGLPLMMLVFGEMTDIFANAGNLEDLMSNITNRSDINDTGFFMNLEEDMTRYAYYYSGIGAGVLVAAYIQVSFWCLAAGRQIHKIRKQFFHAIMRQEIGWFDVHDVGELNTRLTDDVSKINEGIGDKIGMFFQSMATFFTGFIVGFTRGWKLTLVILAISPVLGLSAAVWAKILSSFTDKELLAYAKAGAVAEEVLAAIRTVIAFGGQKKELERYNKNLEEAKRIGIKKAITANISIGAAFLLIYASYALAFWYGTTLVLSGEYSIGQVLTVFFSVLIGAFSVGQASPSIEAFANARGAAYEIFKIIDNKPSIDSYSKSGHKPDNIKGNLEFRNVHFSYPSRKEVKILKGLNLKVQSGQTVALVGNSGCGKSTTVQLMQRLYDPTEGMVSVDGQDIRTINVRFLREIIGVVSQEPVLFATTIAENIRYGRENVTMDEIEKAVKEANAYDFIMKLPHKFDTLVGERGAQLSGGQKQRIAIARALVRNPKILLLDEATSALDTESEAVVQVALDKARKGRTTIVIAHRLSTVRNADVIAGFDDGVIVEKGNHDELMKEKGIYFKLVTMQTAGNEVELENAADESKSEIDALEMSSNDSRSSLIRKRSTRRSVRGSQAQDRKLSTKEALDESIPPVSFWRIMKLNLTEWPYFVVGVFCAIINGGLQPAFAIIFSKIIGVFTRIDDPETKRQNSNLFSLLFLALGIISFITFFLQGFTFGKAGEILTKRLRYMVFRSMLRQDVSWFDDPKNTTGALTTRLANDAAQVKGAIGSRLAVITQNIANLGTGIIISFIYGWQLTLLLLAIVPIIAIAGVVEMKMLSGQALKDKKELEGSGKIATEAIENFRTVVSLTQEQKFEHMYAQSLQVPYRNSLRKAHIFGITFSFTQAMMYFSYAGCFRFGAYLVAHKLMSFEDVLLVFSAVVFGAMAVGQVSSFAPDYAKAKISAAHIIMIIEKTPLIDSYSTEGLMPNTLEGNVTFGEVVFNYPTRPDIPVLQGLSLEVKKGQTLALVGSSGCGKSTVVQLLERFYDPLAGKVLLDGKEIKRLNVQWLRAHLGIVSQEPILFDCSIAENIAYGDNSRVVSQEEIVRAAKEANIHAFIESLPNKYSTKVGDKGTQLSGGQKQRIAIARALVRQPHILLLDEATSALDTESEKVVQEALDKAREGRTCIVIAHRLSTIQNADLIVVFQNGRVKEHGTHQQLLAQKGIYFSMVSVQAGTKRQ
Chain of Beta-lactamase (Salmonella choleraesuis (strain SC-B67), UniProt Q5J463) (Q5J463 whole entry): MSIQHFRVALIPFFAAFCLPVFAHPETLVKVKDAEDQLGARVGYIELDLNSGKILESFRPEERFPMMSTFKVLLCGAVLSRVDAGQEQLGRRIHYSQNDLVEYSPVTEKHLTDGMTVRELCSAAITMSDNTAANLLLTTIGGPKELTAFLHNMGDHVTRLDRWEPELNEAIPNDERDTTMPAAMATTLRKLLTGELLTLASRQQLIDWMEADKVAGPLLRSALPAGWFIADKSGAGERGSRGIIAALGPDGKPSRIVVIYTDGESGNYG
Chain of Broad substrate specificity ATP-binding cassette transporter ABCG2 (Q9UNQ0 whole entry): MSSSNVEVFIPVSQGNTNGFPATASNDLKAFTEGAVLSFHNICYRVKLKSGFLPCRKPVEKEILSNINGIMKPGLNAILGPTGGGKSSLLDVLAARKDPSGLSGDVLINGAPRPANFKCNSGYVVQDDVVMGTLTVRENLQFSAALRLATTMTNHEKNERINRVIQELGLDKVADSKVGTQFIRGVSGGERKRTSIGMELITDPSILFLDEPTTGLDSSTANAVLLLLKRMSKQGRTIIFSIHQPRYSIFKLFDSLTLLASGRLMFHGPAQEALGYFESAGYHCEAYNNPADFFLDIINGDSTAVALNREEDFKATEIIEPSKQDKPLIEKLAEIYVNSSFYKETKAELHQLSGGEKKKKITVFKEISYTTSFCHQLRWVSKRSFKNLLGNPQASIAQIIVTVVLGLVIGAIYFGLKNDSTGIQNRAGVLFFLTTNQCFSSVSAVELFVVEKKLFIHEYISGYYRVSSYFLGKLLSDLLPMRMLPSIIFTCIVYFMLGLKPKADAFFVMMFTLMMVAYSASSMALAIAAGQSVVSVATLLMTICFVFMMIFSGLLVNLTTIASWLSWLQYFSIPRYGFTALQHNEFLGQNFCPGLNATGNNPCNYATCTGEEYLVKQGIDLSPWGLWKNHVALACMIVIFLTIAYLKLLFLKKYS
Chain of Adenosylmethionine-8-amino-7-oxononanoate aminotransferase (P9WQ81 whole entry): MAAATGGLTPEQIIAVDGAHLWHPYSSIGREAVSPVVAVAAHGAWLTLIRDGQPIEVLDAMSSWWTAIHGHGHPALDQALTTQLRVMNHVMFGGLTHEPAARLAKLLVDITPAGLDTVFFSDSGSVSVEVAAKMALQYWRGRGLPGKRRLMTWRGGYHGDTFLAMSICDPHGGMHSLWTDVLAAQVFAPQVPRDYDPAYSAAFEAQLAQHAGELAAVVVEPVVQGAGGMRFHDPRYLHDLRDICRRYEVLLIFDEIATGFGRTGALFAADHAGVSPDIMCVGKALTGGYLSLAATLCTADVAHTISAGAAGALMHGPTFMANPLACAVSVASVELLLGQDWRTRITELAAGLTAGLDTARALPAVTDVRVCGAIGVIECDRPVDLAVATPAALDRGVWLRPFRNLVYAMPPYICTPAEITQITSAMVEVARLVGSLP

With `COc1ccc(/C=N/NC(=O)c2ccccc2F)cc1CN1CCN(c2ccc(F)cc2)CC1` the EC50 [1] was 3.08 µM (active) and the EC50 [2] was 4.07 µM (active).
With `CCCCn1c(-c2ccoc2C)n[nH]c1=S` the IC50 (Beta-lactamase [3]) was > 59.6 µM (inactive), the IC50 (Beta-lactamase [4]) was > 59.6 µM (inactive) and the IC50 (Beta-lactamase [5]) was > 59.6 µM (inactive).
In the case of `COc1ccc(-c2ccc3c(c2)C2CC3CCN2)cc1` (centres undefined), the AC50 [6] is reported as 1.07 µM (active).
`CC1CCC(NC(=O)c2cccc(S(=O)(=O)NCc3ccccc3)c2)CC1` (centres undefined) was tested, and the IC50 [7] was 4.07 µM (active), the IC50 [8] was 3.64 µM (active) and the IC50 [9] was 8.42 µM (active).
